Experimental data taken from patent US20230148599A1, “FUNGICIDAL MIXTURES CONTAINING PYRAZOLE DERIVATIVES” (FMC Corporation, priority 2020, published 2023).

What was measured:
Assay type in all cases: in vivo
Settings in all cases: 50 ppm, 100 = 100% disease control, 0 = no control
Septoria tritici = assay: Test A: wheat leaf blotch, preventive spray on wheat seedlings
How it was run: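 Preventive test: one day after spraying seedlings to run-off (concentrations in ppm; acetone/water, 250 ppm PEG400), Septoria tritici spores applied. Scored after 48 h humid incubation at 24 °C plus 17 days at 20 °C, as percent disease control versus untreated controls (100 = full control).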

[1] = test system: Puccinia recondita f. sp. tritici; assay: Test B: wheat leaf rust, preventive spray on wheat seedlings
How it was run: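 Preventive test: compound in acetone/water 50/50 with 250 ppm PEG400 was sprayed onto wheat seedlings one day before inoculation with leaf rust spores. After 24 h in saturated air and 7 days in a growth chamber, both at 20 °C, disease control was scored from 0 to 100 against controls.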

[2] = test system: Blumeria graminis f. sp. tritici; assay: Test C: wheat powdery mildew, preventive spray on wheat seedlings
How it was run: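 Preventive test: inoculation with spore dust came one day after spraying seedlings to run-off with ppm suspensions in acetone/water (50/50) plus 250 ppm PEG400 surfactant. Visual ratings after 8 days' incubation at 20° C give percent disease control relative to controls.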

Phakopsora pachyrhizi = assay: Test D: Asian soybean rust, preventive spray on soybean seedlings
How it was run: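 Compounds in acetone/water (50/50) with 250 ppm PEG400, dosed in ppm, sprayed to run-off on soybean seedlings; inoculated with P. pachyrhizi spores next day. Held 24 h at 22 °C in saturated air, then 8 days at 22 °C; visual rating of disease control, 0–100, relative to untreated controls.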

Botrytis cinerea = assay: Test E: tomato Botrytis, preventive spray on tomato seedlings
How it was run: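 Preventive test: seedlings sprayed to run-off with compound in acetone/water (50/50) plus 250 ppm PEG400, inoculated one day later with B. cinerea spores. Held 48 h saturated at 20° C, then 3 days at 24° C; disease control scored visually from 0 to 100 versus controls.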

Alternaria solani = assay: Test F: tomato early blight, preventive spray on tomato seedlings
How it was run: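 Preventive test: one day after the compound spray, seedlings were inoculated with A. solani, incubated saturated at 27 °C for 48 h, then kept at 20 °C for 3 days. Test suspensions contained acetone/water 50/50 with 250 ppm PEG400 surfactant. Visual ratings run from 0 (no control) to 100 (full control).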

Row | SMILES | Test A disease control rating (Septoria tritici) [%] | Test B disease control rating [1] [%] | Test C disease control rating [2] [%] | Test D disease control rating (Phakopsora pachyrhizi) [%] | Test E disease control rating (Botrytis cinerea) [%] | Test F disease control rating (Alternaria solani) [%]
1 | Cc1cc(F)c(Nc2c(-c3ccc(C#N)cc3F)c(C)nn2C)c([N+](=O)[O-])c1 [compound 198] | 99 | 99 | 95 | 89 | 99 | 100
2 | COc1ccc(-c2c(C)nn(C)c2Nc2c(F)cc(C)cc2[N+](=O)[O-])c(Cl)c1 [compound 188] | 100 | 100 | 94 | 84 | 100 | 100
3 | Cc1ccc(Nc2c(-c3ccc(F)cc3Cl)c(C)nn2C)c([N+](=O)[O-])c1 [compound 26] | 100 | 99 | 94 | 77 | 100 | 68
4 | CCc1nn(C)c(Nc2ccc(OC)cc2[N+](=O)[O-])c1-c1ccc(F)cc1Cl [compound 173] | 100 | 100 | 98 | 0 | 98 | 93
5 | Cc1nn(C)c(Nc2c(Cl)cc(Br)cc2[N+](=O)[O-])c1-c1ccc(F)cc1F [compound 55] | 100 | 99 | 90 | 0 | 34 | 0
6 | COc1cc(F)c(Nc2c(-c3ccc(F)cc3Br)c(C)nn2C)c([N+](=O)[O-])c1 [compound 165] | 99 | 100 | 98 | 94 | 100 | 100
7 | Cc1nn(C)c(Nc2cc(F)c(F)cc2[N+](=O)[O-])c1-c1ccc(F)cc1Cl [compound 32] | 93 | 85 | 56 | 98 | 99 | 0
8 | CCn1nc(C)c(-c2ccc(F)cc2Cl)c1Nc1c(F)cccc1[N+](=O)[O-] [compound 71] | 100 | 100 | 99 | 82 | 99 | 98
9 | Cc1nn(C)c(Nc2c(Cl)cccc2[N+](=O)[O-])c1-c1ccc(F)cc1Cl [compound 108] | 100 | 100 | 97 | 86 | 100 | 77
10 | COc1cc(F)c(-c2c(C)nn(C)c2Nc2c(C)cccc2[N+](=O)[O-])c(F)c1 [compound 162] | 100 | 100 | 99 | 77 | 97 | 98
11 | Cc1nn(C)c(Nc2c(Cl)cc(Cl)cc2[N+](=O)[O-])c1-c1ccc(Cl)cc1Cl [compound 146] | 97 | 98 | 0 | 0 | 0 | 40
12 | Cc1cccc([N+](=O)[O-])c1Nc1c(-c2c(F)cc(F)cc2Cl)c(C)nn1C [compound 153] | 99 | 100 | 99 | 73 | 99 | 72
13 | COc1ccc(-c2c(C)nn(C)c2Nc2c(Cl)cc(Cl)cc2[N+](=O)[O-])c(Cl)c1 [compound 65] | 94 | 89 | 56 | 66 | 16 | 46
14 | Cc1nn(C)c(Nc2c([N+](=O)[O-])ccc(F)c2F)c1-c1ccc(F)cc1Cl [compound 7] | 100 | 99 | 94 | 96 | 99 | 89
15 | Cc1cccc([N+](=O)[O-])c1Nc1c(-c2c(F)cc(F)cc2Br)c(C)nn1C [compound 169] | 100 | 100 | 100 | 0 | 98 | 0
16 | Cc1cc(Cl)c(Nc2c(-c3c(F)cccc3F)c(C)nn2C)c([N+](=O)[O-])c1 [compound 100] | 100 | 89 | 21 | 0 | 26 | 0
17 | Cc1ccc(Nc2c(-c3ccc(C#N)cc3Cl)c(C)nn2C)c([N+](=O)[O-])c1 [compound 14] | 100 | 97 | 83 | 48 | 96 | 83
18 | Cc1nn(C)c(Nc2c(F)cc(F)cc2[N+](=O)[O-])c1-c1ccc(Cl)cc1Cl [compound 9] | 100 | 100 | 97 | 0 | 97 | 99
19 | COc1ccc(-c2c(C)nn(C)c2Nc2c(Cl)cccc2[N+](=O)[O-])c(Cl)c1 [compound 184] | 100 | 100 | 21 | 0 | 100 | 26
20 | Cc1nn(C)c(Nc2c(F)cc(Cl)cc2[N+](=O)[O-])c1-c1ccc(C#N)cc1Cl [compound 115] | 100 | 100 | 94 | 77 | 99 | 99
21 | COc1ccc(-c2c(C)nn(C)c2Nc2ccccc2[N+](=O)[O-])c(Cl)c1 [compound 140] | 99 | 86 | 31 | 0 | 100 | 93
